ChEMBL document CHEMBL1614632, “Trend analysis of a database of intravenous pharmacokinetic parameters in humans for 670 drug compounds” (Drug Metab Dispos, 2008)

Assays:
clinical [1] = conditions: human, in vivo, iv
clinical [2] = conditions: human, in vivo, iv, Vdss
clinical [3] = conditions: human, in vivo, iv, CL
clinical [4] = conditions: human, in vivo, iv, t1/2

CN1C2CCCC1CC(NC(=O)c1nn(C)c3ccccc13)C2 (stereo not given) [GRANISETRON]
MRT (clinical [1]): 6.7 h | Vd (clinical [2]): 3.7 L/kg | clearance (clinical [3]): 9.1 mL/min/kg | half-life (clinical [4]): 5.2 h

N=C(N)NC(=O)Cc1c(Cl)cccc1Cl [GUANFACINE]
MRT (clinical [1]): 22 h | Vd (clinical [2]): 5.6 L/kg | clearance (clinical [3]): 4.5 mL/min/kg | half-life (clinical [4]): 15 h

C[C@]12CCC(=O)C=C1CC[C@@H]1[C@@H]2[C@@H](O)C[C@@]2(C)[C@H]1CC[C@]2(O)C(=O)CO [HYDROCORTISONE]
MRT (clinical [1]): 1.9 h | Vd (clinical [2]): 0.38 L/kg | clearance (clinical [3]): 5.7 mL/min/kg | half-life (clinical [4]): 1.6 h

NS(=O)(=O)c1cc2c(cc1C(F)(F)F)NCNS2(=O)=O [HYDROFLUMETHIAZIDE]
MRT (clinical [1]): 3.8 h | Vd (clinical [2]): 2.2 L/kg | clearance (clinical [3]): 9.7 mL/min/kg | half-life (clinical [4]): 5.2 h

NC(=O)NO [HYDROXYUREA]
MRT (clinical [1]): 4.8 h | Vd (clinical [2]): 0.52 L/kg | clearance (clinical [3]): 1.5 mL/min/kg | half-life (clinical [4]): 3.4 h

Cc1cc(O)c2c(=O)c3c(O)cc(O)c4c5c(O)cc(O)c6c(=O)c7c(O)cc(C)c8c1c2c(c34)c(c78)c65 [HYPERICIN]
MRT (clinical [1]): 32 h | Vd (clinical [2]): 0.25 L/kg | clearance (clinical [3]): 0.13 mL/min/kg | half-life (clinical [4]): 42 h

CCCCCCCN(CC)CCCC(O)c1ccc(NS(C)(=O)=O)cc1 (stereo not given) [IBUTILIDE]
MRT (clinical [1]): 7.7 h | Vd (clinical [2]): 12 L/kg | clearance (clinical [3]): 26 mL/min/kg | half-life (clinical [4]): 7 h

c1ccc2c(c1)OCC(C1=NCCN1)O2 (stereo not given) [IDAZOXAN]
MRT (clinical [1]): 5.5 h | Vd (clinical [2]): 3.3 L/kg | clearance (clinical [3]): 10 mL/min/kg | half-life (clinical [4]): 4.2 h

O=P1(NCCCl)OCCCN1CCCl (stereo not given) [IFOSFAMIDE]
MRT (clinical [1]): 9.4 h | Vd (clinical [2]): 0.62 L/kg | clearance (clinical [3]): 1.1 mL/min/kg | half-life (clinical [4]): 6.6 h

C[N+](C)([O-])CCCN1c2ccccc2CCc2ccccc21 [IMIPRAMINOXIDE]
MRT (clinical [1]): 2.6 h | Vd (clinical [2]): 1.9 L/kg | clearance (clinical [3]): 12 mL/min/kg | half-life (clinical [4]): 1.8 h

Cc1cnc(NCCCN(C)C)c2c1[nH]c1ccc3cc(O)ccc3c12 [INTOPLICINE]
MRT (clinical [1]): 11 h | Vd (clinical [2]): 11 L/kg | clearance (clinical [3]): 18 mL/min/kg | half-life (clinical [4]): 19 h

CNC(=O)c1c(I)c(NC(C)=O)c(I)c(C(=O)O)c1I [IOTHALAMIC ACID]
MRT (clinical [1]): 1.2 h | Vd (clinical [2]): 0.17 L/kg | clearance (clinical [3]): 2.4 mL/min/kg | half-life (clinical [4]): 1.3 h

CC1=C(CO)C2=C(C)C3(CC3)[C@@](C)(O)C(=O)C2=C1 [IROFULVEN]
MRT (clinical [1]): 0.4 h | Vd (clinical [2]): 3.1 L/kg | clearance (clinical [3]): 140 mL/min/kg | half-life (clinical [4]): 0.3 h

Cc1cc(NC(=O)C2=C(O)c3ccccc3S(=O)(=O)N2C)no1 [ISOXICAM]
MRT (clinical [1]): 44 h | Vd (clinical [2]): 0.19 L/kg | clearance (clinical [3]): 0.07 mL/min/kg | half-life (clinical [4]): 33 h

C/C(=C\c1csc(C)n1)[C@@H]1C[C@@H]2O[C@]2(C)CCC[C@H](C)[C@H](O)[C@@H](C)C(=O)C(C)(C)[C@@H](O)CC(=O)N1 [IXABEPILONE]
MRT (clinical [1]): 18 h | Vd (clinical [2]): 11 L/kg | clearance (clinical [3]): 10 mL/min/kg | half-life (clinical [4]): 17 h

NC[C@H]1O[C@H](O[C@H]2[C@H](O)[C@@H](O[C@H]3O[C@H](CO)[C@@H](O)[C@H](N)[C@H]3O)[C@H](N)C[C@@H]2N)[C@H](O)[C@@H](O)[C@@H]1O [KANAMYCIN]
MRT (clinical [1]): 3.1 h | Vd (clinical [2]): 0.26 L/kg | clearance (clinical [3]): 1.4 mL/min/kg | half-life (clinical [4]): 2.1 h

CCC(=O)C1(c2cccc(O)c2)CCN(C)CC1 [KETOBEMIDONE]
MRT (clinical [1]): 0.87 h | Vd (clinical [2]): 0.48 L/kg | clearance (clinical [3]): 9.2 mL/min/kg | half-life (clinical [4]): 2.3 h

Cc1c(OCC(F)(F)F)ccnc1C[S+]([O-])c1nc2ccccc2[nH]1 (stereo not given) [LANSOPRAZOLE]
MRT (clinical [1]): 1.1 h | Vd (clinical [2]): 0.28 L/kg | clearance (clinical [3]): 4.4 mL/min/kg | half-life (clinical [4]): 1 h

Nc1nc2c(c(=O)[nH]1)N(C=O)C(CNc1ccc(C(=O)N[C@@H](CCC(=O)O)C(=O)O)cc1)CN2 (stereo not given in full) [LEUCOVORIN]
MRT (clinical [1]): 0.8 h | Vd (clinical [2]): 0.25 L/kg | clearance (clinical [3]): 5.8 mL/min/kg | half-life (clinical [4]): 1.3 h

C[C@H]1COc2c(N3CCN(C)CC3)c(F)cc3c(=O)c(C(=O)O)cn1c23.C[C@H]1COc2c(N3CCN(C)CC3)c(F)cc3c(=O)c(C(=O)O)cn1c23.O [LEVOFLOXACIN]
MRT (clinical [1]): 11 h | Vd (clinical [2]): 1.2 L/kg | clearance (clinical [3]): 1.9 mL/min/kg | half-life (clinical [4]): 8.8 h

COc1ccc2c(c1)N(C[C@H](C)CN(C)C)c1ccccc1S2 [LEVOMEPROMAZINE]
MRT (clinical [1]): 21 h | Vd (clinical [2]): 12 L/kg | clearance (clinical [3]): 9.9 mL/min/kg | half-life (clinical [4]): 30 h

CC(=O)NC[C@H]1CN(c2ccc(N3CCOCC3)c(F)c2)C(=O)O1 [LINEZOLID]
MRT (clinical [1]): 5.4 h | Vd (clinical [2]): 0.58 L/kg | clearance (clinical [3]): 1.8 mL/min/kg | half-life (clinical [4]): 4.5 h

CN1C(=O)C(O)N=C(c2ccccc2Cl)c2cc(Cl)ccc21 (stereo not given) [LORMETAZEPAM]
MRT (clinical [1]): 6.7 h | Vd (clinical [2]): 1.6 L/kg | clearance (clinical [3]): 4 mL/min/kg | half-life (clinical [4]): 4.9 h

CCCCc1nc(Cl)c(CO)n1Cc1ccc(-c2ccccc2-c2nn[nH]n2)cc1 [LOSARTAN]
MRT (clinical [1]): 0.75 h | Vd (clinical [2]): 0.37 L/kg | clearance (clinical [3]): 8.2 mL/min/kg | half-life (clinical [4]): 1.8 h

CC[C@H](C)C(=O)O[C@H]1C[C@@H](C)C=C2C=C[C@H](C)[C@H](CC[C@@H]3C[C@@H](O)CC(=O)O3)[C@H]21 [LOVASTATIN]
MRT (clinical [1]): 1.3 h | Vd (clinical [2]): 0.87 L/kg | clearance (clinical [3]): 7.2 mL/min/kg | half-life (clinical [4]): 1.4 h
